Format in all cases: biochemical
Test [1] deals with T1, TAFI (Homo sapiens, UniProt Q96IY4).
T1 construct: purchased Hematological Associates (Essex Junction, Vt.)
T1 sequence (Q96IY4 23-423 limits assumed): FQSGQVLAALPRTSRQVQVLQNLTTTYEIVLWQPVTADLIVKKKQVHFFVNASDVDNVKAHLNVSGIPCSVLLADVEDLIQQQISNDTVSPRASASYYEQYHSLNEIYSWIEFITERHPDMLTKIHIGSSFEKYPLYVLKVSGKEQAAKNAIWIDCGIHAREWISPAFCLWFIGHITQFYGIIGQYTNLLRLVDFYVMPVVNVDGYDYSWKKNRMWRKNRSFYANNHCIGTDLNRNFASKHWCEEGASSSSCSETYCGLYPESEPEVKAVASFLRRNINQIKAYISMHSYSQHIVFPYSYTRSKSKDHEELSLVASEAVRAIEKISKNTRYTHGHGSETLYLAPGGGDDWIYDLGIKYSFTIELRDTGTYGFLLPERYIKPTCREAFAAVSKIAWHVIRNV
In words: TAFI activation by thrombin/thrombomodulin, SDS-PAGE. Conditions: aliquots after 20 minutes, SDS-PAGE (FIG. 4). The protocol:
After 20 minutes, aliquots were removed and analyzed by SDS-PAGE. Lane 1. Acetylsalicylic acid; 2. Salicylic acid; 3. 4-hydroxybenzoic acid; 4. 2-hydroxybenzoic acid (salicyluric acid); 5. Ibuprofen; 6. Acetominophen; 7 Control with no addition; 8. TAFI.
Not only, then, do SA and SU inhibit enzyme activity, they also retard the generation of TAFIa. Without being bound by any theory, this provides a dual mechanism by which fibrinolysis is enhanced during high dose aspirin therapy. The proposed pathways by which aspirin and its major metabolites SA and SU enhance fibrinolysis through inhibition of TAFI is presented in FIG. 5. […] Undas et al., 2001, Blood 98:2423-31.

Test [2] has as its target T2, TAFIa (Homo sapiens, UniProt Q96IY4).
T2 sequence (Q96IY4 115-423): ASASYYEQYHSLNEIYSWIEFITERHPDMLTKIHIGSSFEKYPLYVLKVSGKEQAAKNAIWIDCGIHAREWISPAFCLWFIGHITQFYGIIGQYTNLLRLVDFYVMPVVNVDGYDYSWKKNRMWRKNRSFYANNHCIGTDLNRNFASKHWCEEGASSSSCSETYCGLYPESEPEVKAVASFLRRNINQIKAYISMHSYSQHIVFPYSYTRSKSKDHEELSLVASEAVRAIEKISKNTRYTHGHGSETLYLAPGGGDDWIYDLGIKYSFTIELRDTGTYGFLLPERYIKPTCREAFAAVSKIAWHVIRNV
In words: TAFIa carboxypeptidase activity, ActiFLUOR TAFIa fluorescence-based assay. Further details: purchased American Diagnostica Inc. (Greenwich, Conn.) 3874TAFIa. To be noted: for effect on TAFIa carboxypeptidase activity (residual TAFIa activity): incubation 1 hour at room temperature, various concentrations. The protocol: Residual TAFIa activity was measured using ActiFLUOR TAFIa.
Residual TAFIa activity was measured using ActiFLUOR TAFIa. […] About 60% TAFIa activity is lost at 25 mM SA.
Materials. TAFI was purchased from Hematological Associates (Essex Junction, Vt.) and TAFIa (3874TAFIa) was from American Diagnostica Inc. (Greenwich, Conn.). Carboxypeptidase activity of TAFIa was determined using ACTIFLUOR™ TAFI (#874FX) a fluorescence-based assay from American Diagnostica (Greenwich, Conn.). ASA, SA and SU were obtained from Sigma Chemical Co. (St. Louis, Mo.).
Results. The present inventors have made the surprising discovery that ASA, SA and SU may shift the hemostatic balance toward a profibrinolytic state by inhibition of TAFIa, the major regulator of fibrinolysis. TAFIa was incubated with various concentrations of ASA, SA and SU for one hour, at room temperature. Residual TAFIa activity was measured using ActiFLUOR TAFIa. […] Catella-Lawson and coworkers recently reported that ibuprofen, taken prior to aspirin, blocks the irreversible inhibition of COX-1 by aspirin and abrogates the anti-platelet activity of aspirin. Catella-Lawson, F. et al., 2001, N. Engl. J. Med. 345(25):1809-17. Since ibuprofen has little effect on TAFI, it was reasonable to conclude that ibuprofen taken prior to aspirin would not block the profibrinolytic activity of aspirin caused by TAFI inhibition.

Test [3] concerns the target T2, TAFIa. In words: ActiScreen TAFI HTS assay (TAFIa carboxypeptidase, hippuryl-L-lysine/LOX/HRP). Further details: made in house; host or cells: native human TAFI (not recombinant). How it is done: The activity of the chemical compounds was assessed in the ActiScreen® TAFI HTS assay, the principle of which is shown below.
The assay is run by mixing TAFIa and test compound in microtiter plate wells. “TAFI developer” is then added to start the reaction which is run at room temperature. The TAFI developer is formulated with hippuryl-L-lysine, lysine oxidase, horseradish peroxidase and ortho-phenylene-diamine. Hippuryl-L-lysine is converted by TAFIa to hippuric acid and L-lysine. Lysine-Oxidase (LOX) converts the lysine to 6-amino-2-oxo-hexanoic acid and hydrogen peroxide. The hydrogen peroxide is used along with ortho-phenylene-diamine […] as substrate for horseradish peroxidase. The reaction produces a yellow color that was monitored for Vmax in a spectrophotometer (SpectroMax 190, Molecular Devices, Sunnyvale, Calif.) in the kinetic mode at 450 nm.
The assay can also be run as an endpoint reaction in which the enzymatic reaction is stopped at a selected point in time with 0.5 M sulphuric acid. The resulting color is read at 490 nm. A TAFI inhibitor will block the first reaction in the cascade in which TAFIa converts hippuryl-L-lysine to hippuric acid and lysine, which finally results in a decrease in Vmax or OD 490 nm relative to control reaction without addition of test compound. The assay has been designed to be run in final concentrations of DMSO of up to 20%. A known inhibitor of TAFIa carboxypeptidase activity, potato tuber carboxypeptidase inhibitor (PTCI), is used as a positive control.
Positive hits were selected based upon the ability of compounds to inhibit carboxypeptidase activity of TAFIa, as measured in the ActiScreen assay. The major criterion for selection of “hits” was based on their potency, as determined by the concentration of compound that inhibits the activity of TAFIa in the Actiscreen TAFI assay by 50% (“IC50”).

Test [4] concerns the target T3, Carboxypeptidase N(CPN) (Homo sapiens, UniProt P15169).
T3 construct: pooled normal human plasma (PNP) was used as the source of CPN; from tissue; host or cells: pooled normal human plasma (PNP), diluted 1:10
T3 sequence (P15169 21-458): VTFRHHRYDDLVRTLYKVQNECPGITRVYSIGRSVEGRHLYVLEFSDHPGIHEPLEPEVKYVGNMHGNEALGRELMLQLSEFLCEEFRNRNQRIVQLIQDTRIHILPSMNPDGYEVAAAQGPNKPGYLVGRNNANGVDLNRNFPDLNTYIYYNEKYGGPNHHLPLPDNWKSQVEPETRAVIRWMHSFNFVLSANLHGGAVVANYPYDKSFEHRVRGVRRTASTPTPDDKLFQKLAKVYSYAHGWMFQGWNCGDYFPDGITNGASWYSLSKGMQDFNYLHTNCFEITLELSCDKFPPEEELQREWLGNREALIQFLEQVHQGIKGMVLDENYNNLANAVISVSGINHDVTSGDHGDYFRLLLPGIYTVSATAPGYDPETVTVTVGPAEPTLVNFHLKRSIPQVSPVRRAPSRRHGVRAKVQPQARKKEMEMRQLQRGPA
T3 sequence (P22792 22-545 partner): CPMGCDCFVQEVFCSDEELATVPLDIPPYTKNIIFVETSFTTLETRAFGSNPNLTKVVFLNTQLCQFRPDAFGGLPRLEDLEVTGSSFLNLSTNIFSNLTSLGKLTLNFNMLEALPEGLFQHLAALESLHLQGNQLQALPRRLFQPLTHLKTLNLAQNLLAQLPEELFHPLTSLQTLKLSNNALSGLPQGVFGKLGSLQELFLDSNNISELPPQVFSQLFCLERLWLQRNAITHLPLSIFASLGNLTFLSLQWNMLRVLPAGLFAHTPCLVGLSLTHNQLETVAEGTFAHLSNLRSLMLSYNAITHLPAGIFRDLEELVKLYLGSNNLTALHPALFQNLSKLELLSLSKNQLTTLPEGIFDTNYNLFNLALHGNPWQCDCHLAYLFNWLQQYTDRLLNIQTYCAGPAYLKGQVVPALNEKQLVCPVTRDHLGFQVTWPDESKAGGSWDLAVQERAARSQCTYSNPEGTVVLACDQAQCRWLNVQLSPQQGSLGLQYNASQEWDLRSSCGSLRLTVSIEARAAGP
In words: Specificity against Carboxypeptidase N in pooled normal human plasma. To be noted: PNP (1:10), serially diluted compound. How it is done:
L278R was also tested for specificity against Carboxypeptidase N(CPN). CPN is the constituitively active carboxypeptidase B-like enzyme in plasma. In this study, pooled normal human plasma (PNP) was used as the source of CPN. The specificity studies were performed by adding PNP (1:10), ActiScreen developer and serially diluted test compound into microtiter wells. Inhibition of color development was an indication of inhibitory activity towards CPN.

Test [5] deals with LOX/HRP. In words: Dereplication assay: reaction of LOX/HRP with lysine. To be noted: concentrations 5-10 times greater than IC50 for TAFI. The protocol:
Positive hits identified with the ActiScreen TAFI assay were dereplicated to ensure that the inhibition of color development is due to blocking of the first reaction of the linked enzyme system catalyzed by TAFIa and not to inhibition of LOX or HRP.
Compounds L278R and LT32 were tested in the dereplication assay, described above.

The target of test [6] is T2, TAFIa. Nature of the test: TAFIa inhibition with Actichrome 874 TAFI Developer (Vmax). Further details: purchased American Diagnostica Inc. (Greenwich, Conn.) 3874TAFIa. To be noted: different concentrations, Vmax (FIG. 6). How it is done: Different concentrations of gentisic acid (GA) were incubated with TAFIa and Actichrome 874 TAFI Developer. TAFI activity (Vmax) was determined.

SMILES strings stand for the structures. “Also recorded” adds a separate entry of the source. Where two headings read alike, the source gives them in different places.

Turning to `CC(=O)Oc1ccccc1C(=O)O` [ASA, acetylsalicylic acid], the “effect on activation of TAFI to TAFIa by thrombin/thrombomodulin” value (shortened to “effect … by thrombin/thrombomodulin”) in test [1] was “did not appear to have a significantly effect”. In test [2] (incubation 1 hour at room temperature (FIG. 1)), the “concentration at which significant inhibition of TAFI activity occurs” value was around 600 µg/mL. Besides, the “effect on TAFIa carboxypeptidase activity (residual TAFIa activity)” value (shortened to “effect … (residual TAFIa activity)”) in test [2] is “directly inhibited; also recorded: inhibited in a dose-dependent manner”.
The IC50 is the concentration that gives 50% inhibition. With `O=C(N[C@H](CO)Cc1ccccc1)c1cc(O)ccc1O` [JV59, N-[(S)-1-hydroxy-3-phenyl-2-propyl]-2,5-dihdroxybenzamide], the IC50 in test [3] was 44 µM.
On to `NCCCNC(=O)OCCNC(=O)c1ccccc1O` [L278R, 2-(2-hydroxybenzoylamino)ethyl N-(3-aminopropyl)carbamate], for which, in test [4], the “inhibition of CPN” value is on record as “did not inhibit CPN”. Also, the “effect on reaction rate (Vmax) of LOX/HRP with lysine” value in test [5] is “Neither of the compounds had a significant effect”. The IC50 in test [3] (TAFIa preincubated with compound 1 hour at 4° C. prior to assay) worked out at 890 µM; in test [3] (no preincubation, assay as in Example 3) it was 1540 µM. Moreover, the figures for the “type of inhibition of TAFIa” value in test [3] (no preincubation) and in test [3] (preincubated 1 hour at 4° C.) were “competitive type inhibitor” and “non-competitive-type inhibitor”, respectively.
On to `O=C(NCCNC(=O)c1cc(OCc2ccccc2)ccc1OCc1ccccc1)OCCNC(=O)c1ccccc1O` [LT32], for which the “effect on reaction rate (Vmax) of LOX/HRP with lysine” value in test [5] is recorded as “Neither of the compounds had a significant effect”. Also, the IC50 in test [3] is 225 µM. In test [3] (no preincubation), the “type of inhibition of TAFIa” value was “competitive inhibitor”.
Consider `O=C(O)c1ccccc1O` [SA, salicylic acid], for which the “effect … by thrombin/thrombomodulin” value is recorded as “inhibit activation of TAFI to TAFIa” in test [1] and “inhibit the activation of TAFI” in test [1] (listed as salicylic acid). The TAFIa activity lost entry in test [2] (25 mM, room temperature, 1 hour (FIG. 3)) is listed as “About 60%”. Further, in test [2], the “effect … (residual TAFIa activity)” value is reported as “directly inhibited; also recorded: inhibited in a dose-dependent manner”.
Consider `O=C(O)CNC(=O)c1ccccc1O` [SU, salicyluric acid (2-hydroxyhippuric acid)], for which the “effect … by thrombin/thrombomodulin” value in test [1] is recorded as “inhibit activation of TAFI to TAFIa”; in test [1] (listed as 2-hydroxybenzoic acid (salicyluric acid)) it was “inhibit the activation of TAFI”. The “rank of potency as TAFIa inhibitor” value in test [2] (SU vs SA vs ASA, 1 hour at room temperature) is given as “most effective inhibitor”. The “effect … (residual TAFIa activity)” value in test [2] is on record as “directly inhibited; also recorded: inhibited in a dose-dependent manner”.
As to `CC(=O)Nc1ccc(O)cc1` [acetominophen], the “effect … (residual TAFIa activity)” value in test [2] is given as “little inhibitory effect”.
For the molecule `O=C(O)c1cc(O)ccc1O` [gentisic acid], in test [6], the “type of inhibition of TAFIa” value was “competitive inhibition”.
Regarding `CC(C)Cc1ccc(C(C)C(=O)O)cc1` (stereo not drawn) [ibuprofen], the “effect … (residual TAFIa activity)” value in test [2] is “little inhibitory effect”.
